Experiments:
[1] = system: primary human bladder urothelial cells; experiment: BMP pathway activation in cultured urothelial cells, BMP target gene expression by quantitative RT-PCR; format: cell-based; conditions: 20 ng/ml FK506, 12 hours
Source text: As Bmp4 and Bmp5 secreted from stromal cells have the potential to act on urothelium, we tested the ability of cultured urothelial cells to respond to BMP pathway activation. For this purpose we selected FK506, an FDA-approved drug recently shown to activate BMP pathway at concentrations below those required for its immunosuppressant effects^27. […] Loss of Shh expression in human invasive carcinomas, as noted previously (FIG. 1A), would be expected to disrupt this signal feedback; this expectation was confirmed by a dramatic reduction of BMP4 and BMP5 expression in human invasive urothelial carcinoma as compared to benign bladder (FIG. 4D).
For BBN-induced bladder carcinogenesis, a 0.1% concentration of BBN was provided to mice ad libitum for 4-6 months. […] Quantitative RT-PCR was used for measurement of RNA levels in samples isolated from the human and mouse bladder samples. […]
(§1) Bladder samples were snap frozen in liquid nitrogen, homogenized with a mortar and pestle, and RNA extracted with the RNeasy Plus Mini kit (Qiagen). For quantitative RT-PCR of mRNA transcripts, first-strand cDNA was made using the SuperScript III First-Strand Synthesis SuperMix (Invitrogen 18080-400). Quantitative RT-PCR was performed using iQ SYBR Green Supermix (Bio-Rad 170-8880) and the Bio-Rad iCycler. […]

[2] = system: BBN-induced bladder cancer; experiment: BBN-induced bladder carcinogenesis in mice, progression to invasive carcinoma (histopathology); format: in vivo
Source text: To investigate the role of Bmp pathway activity in bladder tumor progression and to test the possibility that Bmp pathway activation might stimulate urothelial differentiation, which in turn might impede tumor progression, we exposed mice to BBN for 4 months, then initiated treatment with FK506 for another month while also continuing exposure to BBN (FIG. 5A). We have previously noted that mice exposed to BBN for 4 months develop pre-malignant lesions indistinguishable from human carcinoma-in-situ but not invasive carcinoma, which requires further BBN exposure^6.
(§2) For BBN-induced bladder carcinogenesis, a 0.1% concentration of BBN was provided to mice ad libitum for 4-6 months. For Smo deletion experiments, a transgene expressing tamoxifen-activated Cre was used to selectively inactivate a conditional allele of Smo. To activate the BMP pathway, Alzet osmotic pumps were implanted subcutaneously to administer FK506 to mice exposed to BBN. Quantitative RT-PCR was used for measurement of RNA levels in samples isolated from the human and mouse bladder samples. […]
A 0.1% concentration of BBN (TCI America) was dissolved in drinking water, and BBN-containing water was provided to mice ad libitum for 4-6 months in a dark bottle. […] Bladders were collected and analyzed after 4 to 6 months of BBN administration. […]

[3] = system: primary human bladder stromal cells; experiment: Hh pathway stimulation of primary human bladder stromal cells, gene expression by quantitative RT-PCR; format: cell-based; conditions: 24 hours; for Expression of BMP4 increased as compared to the unstimulated control / Expression of BMP5 increased as compared to the unstimulated control / Expression of GLI1 increased as compared to the unstimulated control: serum-starved, SAG 200 nM or Shh conditioned medium (ShhN)
Source text: (§3) To determine whether Hh signaling regulates expression of BMP4 and BMP5 in human bladder, we first examined the expression of Hh pathway components in primary human bladder fibroblasts and epithelial cells. […] To evaluate response to the Hh signal, we treated cultured human bladder stromal and urothelial cells with ShhN protein or with the chemical pathway agonist SAG^24. […] Concomitant with the increase in GLI1 mRNA upon stimulation of the cultured human bladder stromal fibroblasts, we noted an increase in levels of BMP4 and BMP5 transcripts (FIG. 4B).
For BBN-induced bladder carcinogenesis, a 0.1% concentration of BBN was provided to mice ad libitum for 4-6 months. For Smo deletion experiments, a transgene expressing tamoxifen-activated Cre was used to selectively inactivate a conditional allele of Smo. To activate the BMP pathway, Alzet osmotic pumps were implanted subcutaneously to administer FK506 to mice exposed to BBN. Quantitative RT-PCR was used for measurement of RNA levels in samples isolated from the human and mouse bladder samples. For in vitro cultures, primary human bladder urothelial and stromal cells were treated with FK506 for 12 hours, or serum-starved and treated with SAG or Shh conditioned medium with or without cyclopamine for 24 hours prior to gene expression analyses.
Bladder samples were snap frozen in liquid nitrogen, homogenized with a mortar and pestle, and RNA extracted with the RNeasy Plus Mini kit (Qiagen). For quantitative RT-PCR of mRNA transcripts, first-strand cDNA was made using the SuperScript III First-Strand Synthesis SuperMix (Invitrogen 18080-400). Quantitative RT-PCR was performed using iQ SYBR Green Supermix (Bio-Rad 170-8880) and the Bio-Rad iCycler.
Primary human bladder urothelial cells (ScienCell 4320) and bladder stromal fibroblasts (ScienCell 4330) were cultured in Urothelial Cell Medium (ScienCell 4321) and Fibroblast Medium (ScienCell 2301) respectively to sub-confluency. Cells were then starved for 12 hours, followed by addition of Shh conditioned medium in the absence or in the presence of cyclopamine (3 uM, Toronto Research Chemicals), or treated with the Shh pathway agonist SAG (200 nM, Millipore) for 24 hours. In separate experiments, cells were treated with 20 ng/ml FK506 (Cayman Chemical) or DMSO for 12 hours. Following treatment, RNA was extracted using the Trizol reagent.

[4] = system: primary human bladder urothelial cells; experiment: Hh pathway stimulation of primary human bladder urothelial cells, gene expression by quantitative RT-PCR; format: cell-based; conditions: SAG 200 nM or ShhN, 24 hours
Source text: as §3
as §2, with “To activate the BMP pathway, Alzet osmotic pumps were implanted subcutaneously to administer FK506 to mice exposed to BBN.” left out
as §1

[5] = cyclopamine 3 uM added to Hh pathway stimulation

| Compound | Expression of BMP target gene CDKN1B increased as compared to the DMSO control [1] | Expression of BMP target gene ID4 increased as compared to the DMSO control [1] | Progression of bladder cancer in mice ([2]; low-dose FK506, murine BBN model) | Development of invasive carcinoma in treated mice ([2]; mice exposed to BBN 5 months, FK506 0.05 mg/kg/day by subcutaneous osmotic pump during the final month, cohort of 10 mice (control 7 of 9 invasive)) | Expression of BMP4 increased as compared to the unstimulated control [3] | Expression of BMP5 increased as compared to the unstimulated control [3] | Expression of GLI1 increased as compared to the unstimulated control [3] | Response of urothelial cells to Hh pathway stimulation (GLI1 expression) [4] | Effect of added cyclopamine on the stimulated increase of BMP4 and BMP5 expression [3, 5] | Effect of added cyclopamine on the stimulated increase of GLI1 expression [3, 5] |
| --- | --- | --- | --- | --- | --- | --- | --- | --- | --- | --- |
| C=CC[C@@H]1/C=C(\C)C[C@H](C)C[C@H](OC)[C@H]2O[C@@](O)(C(=O)C(=O)N3CCCC[C@H]3C(=O)O[C@H](/C(C)=C/[C@@H]3CC[C@@H](O)[C@H](OC)C3)[C@H](C)[C@@H](O)CC1=O)[C@H](C)C[C@@H]2OC [FK506] | 2.4 fold | 1.6 fold | halts progression | no invasive carcinoma was observed | – | – | – | – | – | – |
| CNC1CCC(N(Cc2cccc(-c3ccncc3)c2)C(=O)c2sc3ccccc3c2Cl)CC1 (centres unmarked) [SAG] | – | – | – | – | 5.8 fold | 2 fold | 5.4 fold | did not respond | – | – |
| CC1=C2C[C@H]3[C@@H](CC=C4C[C@@H](O)CC[C@@]43C)[C@@H]2CC[C@]12O[C@@H]1C[C@H](C)CN[C@H]1[C@H]2C [cyclopamine] | – | – | – | – | – | – | – | – | reversed | reversed |
| ShhN: ShhN protein, Hh ligand, applied as Shh conditioned medium | – | – | – | – | 3.9 fold | 1.6 fold | 1.6 fold | did not respond | – | – |

— patent US9814703B2, “Methods for treating cancer by activation of BMP signaling” (The Board of Trustees of the Leland Stanford Junior …, priority 2013, dated 2017)
